Results: PubChem BioAssay (NCI)
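Results reflect a 48-hour exposure of cells in 96-well plates to compound at five concentrations. TGI marks complete inhibition of growth.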

Columns and labels:
Assay in all cases: DTP human tumour cell line panel, 48 h
DU-145 prostate = tested on: DU-145 prostate
SK-OV-3 ovarian = tested on: SK-OV-3 ovarian
NCI/ADR-RES ovarian = tested on: NCI/ADR-RES ovarian
SN12C renal = tested on: SN12C renal
NCI-H522 lung = tested on: NCI-H522 lung
IGROV1 ovarian = tested on: IGROV1 ovarian
SR leukemia = tested on: SR leukemia
MDA-MB-435 = tested on: MDA-MB-435
HT29 colon = tested on: HT29 colon
OVCAR-3 ovarian = tested on: OVCAR-3 ovarian

CC1(O)CC23CC(O)C4(O)C(CC(O)C4(C)C)C(C)(O)C2CCC1C3O (centres undefined)
TGI (DU-145 prostate): > 100 µM | TGI (SK-OV-3 ovarian): > 100 µM | TGI (NCI/ADR-RES ovarian): > 100 µM | TGI (SN12C renal): > 100 µM | TGI (NCI-H522 lung): > 100 µM | TGI (IGROV1 ovarian): > 100 µM | TGI (SR leukemia): > 100 µM | TGI (MDA-MB-435): > 100 µM | TGI (HT29 colon): > 100 µM

CC(C)(C)C(=O)C(N)C(=O)C(C)(C)C
TGI (DU-145 prostate): > 100 µM | TGI (SK-OV-3 ovarian): > 100 µM | TGI (NCI/ADR-RES ovarian): > 100 µM | TGI (SN12C renal): > 100 µM | TGI (NCI-H522 lung): > 100 µM | TGI (SR leukemia): > 100 µM | TGI (MDA-MB-435): > 100 µM

Cc1cc(S(=O)(=O)NC2=NCc3c(F)cccc3N2)c(S)cc1Cl
TGI (DU-145 prostate): > 100 µM | TGI (NCI/ADR-RES ovarian): > 100 µM | TGI (SN12C renal): > 100 µM | TGI (NCI-H522 lung): > 100 µM | TGI (IGROV1 ovarian): > 100 µM | TGI (SR leukemia): > 100 µM | TGI (MDA-MB-435): > 100 µM | TGI (OVCAR-3 ovarian): > 100 µM

O=C(CCCCCCCCC(=O)N1C(=O)CC(=O)N(c2ccc(Cl)cc2)C1=S)N1C(=O)CC(=O)N(c2ccc(Cl)cc2)C1=S
TGI (DU-145 prostate): > 100 µM | TGI (SK-OV-3 ovarian): > 100 µM | TGI (NCI/ADR-RES ovarian): > 100 µM | TGI (SN12C renal): > 100 µM | TGI (NCI-H522 lung): > 100 µM | TGI (SR leukemia): 83.7 µM | TGI (MDA-MB-435): > 100 µM | TGI (HT29 colon): > 100 µM | TGI (OVCAR-3 ovarian): > 100 µM

N#Cc1cc2c(n(C3OC(CO)C(O)C(O)C3O)c1=S)CCC2 (centres undefined)
TGI (DU-145 prostate): > 100 µM | TGI (NCI/ADR-RES ovarian): > 100 µM | TGI (SN12C renal): > 100 µM | TGI (NCI-H522 lung): > 100 µM | TGI (IGROV1 ovarian): > 100 µM | TGI (SR leukemia): > 100 µM | TGI (MDA-MB-435): > 100 µM | TGI (HT29 colon): > 100 µM | TGI (OVCAR-3 ovarian): > 100 µM

CC1=NN(c2cc(Cl)c(S(=O)(=O)O)cc2Cl)C2(C1)C(Cl)C(=O)N2c1nc2ccccc2s1 (centres undefined)
TGI (DU-145 prostate): > 100 µM | TGI (NCI/ADR-RES ovarian): > 100 µM | TGI (SN12C renal): > 100 µM | TGI (NCI-H522 lung): 71.2 µM | TGI (IGROV1 ovarian): > 100 µM | TGI (SR leukemia): > 100 µM | TGI (MDA-MB-435): > 100 µM | TGI (HT29 colon): > 100 µM

COc1ccc(C=C2C(C)=NN(c3cccc(Cl)c3)C23C(Cl)C(=O)N3c2nc3ccccc3s2)cc1 (centres undefined)
TGI (DU-145 prostate): 33 µM | TGI (SK-OV-3 ovarian): 89.7 µM | TGI (NCI/ADR-RES ovarian): 85.7 µM | TGI (NCI-H522 lung): 22 µM | TGI (IGROV1 ovarian): 40.1 µM | TGI (SR leukemia): 85.7 µM | TGI (MDA-MB-435): 66.8 µM | TGI (HT29 colon): 24.4 µM | TGI (OVCAR-3 ovarian): 42.9 µM

c1csc(-c2cc(-c3ccsc3)cs2)c1
TGI (DU-145 prostate): > 100 µM | TGI (SK-OV-3 ovarian): > 100 µM | TGI (NCI/ADR-RES ovarian): > 100 µM | TGI (SN12C renal): > 100 µM | TGI (IGROV1 ovarian): > 100 µM | TGI (SR leukemia): > 100 µM | TGI (MDA-MB-435): > 100 µM | TGI (HT29 colon): > 100 µM | TGI (OVCAR-3 ovarian): > 100 µM

CCn1c(-c2cc3ccccc3cc2OC(C)=O)n[nH]c1=S
TGI (DU-145 prostate): 81.1 µM | TGI (SK-OV-3 ovarian): > 100 µM | TGI (NCI/ADR-RES ovarian): 60.9 µM | TGI (NCI-H522 lung): 38.8 µM | TGI (IGROV1 ovarian): > 100 µM | TGI (SR leukemia): 4.79 µM | TGI (MDA-MB-435): > 100 µM | TGI (HT29 colon): > 100 µM | TGI (OVCAR-3 ovarian): 67.8 µM

COc1cc2c(cc1OC)C(C1CC1)ON(C)CC2 (centres undefined)
TGI (DU-145 prostate): > 100 µM | TGI (NCI/ADR-RES ovarian): > 100 µM | TGI (SN12C renal): > 100 µM | TGI (NCI-H522 lung): > 100 µM | TGI (IGROV1 ovarian): > 100 µM | TGI (SR leukemia): > 100 µM | TGI (MDA-MB-435): > 100 µM | TGI (HT29 colon): > 100 µM | TGI (OVCAR-3 ovarian): > 100 µM

CCN(CCCl)c1cc(CN(C)C)cc(NC(=O)c2ccc(C(=O)Nc3cccc(N(CCCl)NN)c3)cc2)c1
TGI (DU-145 prostate): 8.66 µM | TGI (SK-OV-3 ovarian): 13.3 µM | TGI (NCI/ADR-RES ovarian): 12.7 µM | TGI (SN12C renal): 1.16 µM | TGI (IGROV1 ovarian): 0.078 µM | TGI (SR leukemia): > 100 µM | TGI (MDA-MB-435): 0.0389 µM | TGI (HT29 colon): 0.0409 µM

CC(C)(C)[C@H]1NC(=O)CN1C(=O)OCc1ccccc1
TGI (DU-145 prostate): > 100 µM | TGI (SK-OV-3 ovarian): > 100 µM | TGI (NCI/ADR-RES ovarian): > 100 µM | TGI (SN12C renal): > 100 µM | TGI (NCI-H522 lung): > 100 µM | TGI (IGROV1 ovarian): > 100 µM | TGI (SR leukemia): > 100 µM | TGI (MDA-MB-435): > 100 µM | TGI (HT29 colon): > 100 µM

Clc1ccc(C2=CC(c3ccccc3)N3C(=N[C@H]4CCCC[C@@H]43)N2)cc1 (some centres undefined)
TGI (DU-145 prostate): 20.7 µM | TGI (SK-OV-3 ovarian): 27.9 µM | TGI (NCI/ADR-RES ovarian): 19.6 µM | TGI (IGROV1 ovarian): 13.6 µM | TGI (SR leukemia): 5.98 µM | TGI (MDA-MB-435): 20.4 µM | TGI (HT29 colon): 10.2 µM | TGI (OVCAR-3 ovarian): 19.3 µM

CCOC(=O)CC1(N)CC2c3ccccc3OC(=O)C2C(=O)N1 (centres undefined)
TGI (DU-145 prostate): > 100 µM | TGI (NCI/ADR-RES ovarian): > 100 µM | TGI (SN12C renal): > 100 µM | TGI (NCI-H522 lung): > 100 µM | TGI (IGROV1 ovarian): > 100 µM | TGI (SR leukemia): > 100 µM | TGI (MDA-MB-435): > 100 µM | TGI (HT29 colon): > 100 µM | TGI (OVCAR-3 ovarian): > 100 µM

Nc1c(-c2ccccc2)c2ccc([N+](=O)[O-])cc2c(=O)n1-c1cccc(C(=O)O)c1
TGI (DU-145 prostate): > 100 µM | TGI (SK-OV-3 ovarian): > 100 µM | TGI (NCI/ADR-RES ovarian): > 100 µM | TGI (NCI-H522 lung): > 100 µM | TGI (IGROV1 ovarian): > 100 µM | TGI (SR leukemia): > 100 µM | TGI (MDA-MB-435): > 100 µM | TGI (HT29 colon): > 100 µM | TGI (OVCAR-3 ovarian): > 100 µM

CCOC(=O)CC1C(C(=O)OCC)=Cn2c([nH]c3cccc4cccc2c43)=C1C(=O)OCC (centres undefined)
TGI (DU-145 prostate): > 100 µM | TGI (SK-OV-3 ovarian): > 100 µM | TGI (NCI/ADR-RES ovarian): > 100 µM | TGI (SN12C renal): > 100 µM | TGI (IGROV1 ovarian): > 100 µM | TGI (SR leukemia): > 100 µM | TGI (MDA-MB-435): > 100 µM | TGI (HT29 colon): > 100 µM | TGI (OVCAR-3 ovarian): > 100 µM

O=c1[nH]c(NCCCCCO)nc2nc[nH]c12
TGI (DU-145 prostate): > 100 µM | TGI (NCI/ADR-RES ovarian): > 100 µM | TGI (SN12C renal): > 100 µM | TGI (NCI-H522 lung): > 100 µM | TGI (IGROV1 ovarian): > 100 µM | TGI (SR leukemia): > 100 µM | TGI (MDA-MB-435): > 100 µM | TGI (HT29 colon): > 100 µM | TGI (OVCAR-3 ovarian): > 100 µM

Cc1cc(C)n(C(=CC(=O)C(Cl)Cl)n2nc(C)cc2C)n1
TGI (DU-145 prostate): 23 µM | TGI (SK-OV-3 ovarian): > 100 µM | TGI (NCI/ADR-RES ovarian): 10.7 µM | TGI (NCI-H522 lung): 7.76 µM | TGI (IGROV1 ovarian): 30.4 µM | TGI (SR leukemia): 5.69 µM | TGI (MDA-MB-435): 11 µM | TGI (OVCAR-3 ovarian): 16.1 µM

CC1(c2ccc(Cl)cc2)c2ccccc2C(=O)N1CCCN1C(=O)c2ccccc2C1=O (centres undefined)
TGI (DU-145 prostate): > 100 µM | TGI (SK-OV-3 ovarian): > 100 µM | TGI (NCI/ADR-RES ovarian): 76.1 µM | TGI (SN12C renal): > 100 µM | TGI (IGROV1 ovarian): 70.4 µM | TGI (SR leukemia): > 100 µM | TGI (MDA-MB-435): > 100 µM | TGI (HT29 colon): > 100 µM | TGI (OVCAR-3 ovarian): 99.7 µM
